Consider two compounds from patent US6878746B2, “Carbamate and thiocarbamate podophyllotoxin derivatives, preparation method and pharmaceutical compositions containing them” (priority 2000, dated 2005).

The test system of experiment [1] is Lewis lung carcinoma (LLC). Nature of the experiment: Anti-tumour activity on Lewis lung carcinoma. The experiment is classed as in vivo, B6D2F1 mice. The settings on record: D 4, 8, 12; for T/C %: increase in survival time; for Survivors D90: surviving animals on day 90, 7 animals per group. The text has this: Lewis lung carcinoma (LLC) is a solid tumour that appeared spontaneously in the lungs of a C57B1/6 mouse and is maintained by successive transplants of fragments by the s.c. route. The LLC was obtained from the Division of Cancer Treatment, Tumor Repository, National Cancer Institute, Frederick, Md., USA. The mice, which are 4 to 6 weeks old, were obtained from Iffa Credo (Lyon, France), and weighed from 20 to 22 g at the beginning of the experiment.
On the first day of the experiment (D0), the tumours are removed and cut into fragments of approximately 30 mg which are immediately grafted by the s.c. route into the B6D2F1 mice. The mice into which the fragments have been implanted are then randomly divided into the treated groups and the control group (7 animals per group).
The parameter used for evaluating the anti-tumour activity is the increase in survival time.
In addition, the number of surviving animals in each group is counted at the end of the experiment on day 90.
The products were administered in accordance with the scheme shown below. The results are expressed as % T/C, calculated in the same manner as in the preceding test: […]

Experiment [2] concerns non-small-cell lung carcinoma A549. The experiment in a line: In vitro cytotoxicity, Microculture Tetrazolium Assay. The experiment is classed as cell-based, human. The settings on record: exposure for four doubling periods (48 or 96 hours). As to the method:
(§1) The compounds of the invention were tested on various human and murine cell lines: • murine leukaemia L1210, • epidermoid carcinoma A-431, • non-small-cell lung carcinoma A549, • small-cell lung carcinoma H69, • colon carcinoma HT29, • buccal epidermoid carcinoma KB-3-1.
(§2) The cells are cultured in RPMI 1640 complete culture medium comprising 10% foetal calf serum, 2 mM glutamine, 50 units/ml of penicillin, 50 μg/ml of streptomycin and 10 mM Hepes, pH 7.4. The cells are distributed on microplates and are exposed to the cytotoxic compounds for four doubling periods, that is to say 48 hours or 96 hours. The number of viable cells is then quantified by a colorimetric assay, the Microculture Tetrazolium Assay (J. Carmichael et al., Cancer Res.; 47, 936-942, (1987)). The results are expressed as IC50, the cytotoxic concentration that inhibits the proliferation of the treated cells by 50%.

In experiment [3] the test system is buccal epidermoid carcinoma KB-3-1. The description is as above. The experiment is classed as cell-based, human. The conditions noted are these: exposure for four doubling periods (48 or 96 hours). How it is done:
as §1, §2

Another experiment relates to colon carcinoma HT29. Described as above. The conditions noted are these: exposure for four doubling periods (48 or 96 hours). The experiment is classed as cell-based, human. As to the method: as §1, §2
For experiment [4], the system named is epidermoid carcinoma A-431. The experiment is described as above. Format: cell-based, human. The conditions noted are these: exposure for four doubling periods (48 or 96 hours). As to the method: as §1, §2
Experiment [5] relates to small-cell lung carcinoma H69. The description is as above. Format: cell-based, human. The settings on record: exposure for four doubling periods (48 or 96 hours). As to the method:
as §1, §2

Another experiment deals with murine leukaemia L1210. The description is as above. The settings on record: exposure for four doubling periods (48 or 96 hours). The experiment is classed as cell-based. How it is done: as §1, §2
The next experiment deals with P388 (murine leukaemia). Nature of the experiment: Anti-tumour activity on P388 leukaemia. The experiment is classed as in vivo, female BDF1 mice. The conditions noted are these: 6.25 mg/kg, intravenous route on day 1; tumour cells inoculated i.p. As to the method:
Line P388 (murine leukaemia) was supplied by the National Cancer Institute (Frederick, USA). The tumour cells (10^6 cells) were inoculated on day 0 into the peritoneal cavity of female BDF1 mice (Iffa-Credo, France) weighing from 18 to 20 g (groups of 6 animals).
The products were administered by the intravenous route on day 1.
The anti-tumour activity is expressed as % T/C: [formula] For information only, the compound of Example 6 is active against P388 leukaemia and induces a T/C of 203% at 6.25 mg/kg. *Anti-tumour Activity of the Compounds on Lewis Lung Carcinoma: […]

The test system of another experiment is L1210 cells. The experiment in a line: Action on the cell cycle (propidium iodide). The conditions noted are these: 100 nM, after 21 hours; control: 20%. Format: cell-based, murine. As to the method: L1210 cells are incubated for 21 hours at 37° C. in the presence of various concentrations of test compounds. The cells are then fixed using 70% ethanol (v/v), washed twice in PBS and incubated for 30 minutes at 20° C. in PBS that contains 100 μg/ml of RNAse and 50 μg/ml of propidium iodide. The results are expressed as a percentage of the cells that have accumulated in the G2+M phase after 21 hours compared with the control (control: 20%). At a concentration of 100 nM, the compound of Example 6 induces an 86% accumulation of the cells in the G2+M phase after 21 hours.

pIC50: −log10 of the molar value.

For the compound `COc1cc([C@@H]2c3cc4c(cc3[C@@H](OC(=O)N(C)CCN(C)C)[C@@H]3COC(=O)[C@@H]23)OCO4)cc(OC)c1O` [Example 1, (5S,5aS,8aS,9R)-9-(4-Hydroxy-3,5-dimethoxyphenyl)-8-oxo-5,5a,6,8,8a,9-hexahydro-furo[3′,4′:6,7]naphtho[2,3-d][1,3] dioxol-5-yl 2-(dimethylamino)ethyl(methyl)carbamate], in experiment [1] (25 mg/kg i.v.), the T/C % turned out to be 165% and the “Survivors D90” value was 1/7.

For the compound “(5S,5aS,8aS,9R)-9-(4-Hydroxy-3,5-dimethoxyphenyl)-8-oxo-5,5a,6,8,8a,9-hexahydro-furo[3′,4′:6,7]naphtho[2,3-d][1,3]dioxol-5-yl-2-(dimethylamino)ethylcarbamate [Example 6]”, the negative-log IC50 (pIC50) (usually the negative decadic logarithm of the IC50, by convention in mol/L) is 7.34 in experiment [2]; 7.07 in experiment [3]; 6.92 with colon carcinoma HT29; 7.15 in [4]; 7.02 in experiment [5]; 7.42 with murine leukaemia L1210. In addition, the T/C % in experiment [1] (3.12 mg/kg i.v.) is listed as 168%. In addition, the “Survivors D90” value in [1] (3.12 mg/kg i.v.) is reported as 1/7. In addition, the T/C (in general, the ratio of treated to control) in the experiment with P388 (murine leukaemia) is recorded as 203%. In addition, in the experiment with L1210 cells, the “accumulation of the cells in the G2+M phase” value was found to be 86%.
